The values below come from PMC8481502, “Bovine NK-lysin peptides exert potent antimicrobial activity against multidrug-resistant Salmonella outbreak isolates” (Scientific Reports, 2021).

Peptide text beside a SMILES is read from it.

In data set [1] the test system is Swiss-Webster mice. Briefly: Mouse study of in vivo cytotoxic effects. The conditions noted are these: single intraperitoneal dose 100 µg (~ 4 mg/kg) in PBS, female Swiss-Webster mice, 5 per cage, 2-week observation. As to the method: To determine whether NK-lysin peptides show in vivo cytotoxic effects, a mouse study was conducted. Briefly, thirty 5–6 weeks old female Swiss-Webster mice (Envigo, Indianapolis, IN) were housed in groups in six individual cages (5 mice per cage) in ABSL2 facilities with ad libitum access to food and water in a 12-h light:dark cycle. After 1 week of acclimation, mice were intraperitoneally injected with a single dose of 100 µg of NK-lysin peptides (NK1, NK2A, NK2B, NK2C, or Sc-NK2A, ~ 4 mg/kg of body weight) in PBS (1 mL). Mice injected with PBS (1 mL) served as a negative control for the study. Mice were daily observed for any signs of toxicity and were euthanized 2 weeks post peptide administration.

Data set [2] has as its system Salmonella enterica serovar Typhimurium isolate UK-1 (SB377, non-MDR). In words: Growth curve assay (automated reader, OD600) with isolate SB377. The class given is cell-based. The conditions noted are these: for growth inhibition activity on SB377 at highest tested concentration: up to 20 µM peptide, 24 h growth curve; for time at which bacteria recovered and grew after initial inhibition: SB377, LB broth. As to the method:
(§1) Overnight cultures of a MDR Salmonella outbreak isolate (SX238) and one non-MDR Salmonella isolate (SB377) were diluted 1:1000 in LB broth to obtain approximately 1 × 10^6 colony forming units per milliliter (CFU/mL). One hundred microliters of each diluted culture were transferred into honeycomb® 100-well plates (~ 1 × 10^5 CFU/well) (Growth Curves USA, Piscataway, NJ). Bovine NK-lysin peptides (NK1, NK2A, NK2B, and NK2C) were added at the final peptide concentrations of 20, 10, 5, 3.5, 2 µM in PBS (total volume = 20 µL) with a final bacterial-peptide volume of 120 µL/well. The plates were covered with lids and placed in an automated growth curve reader (Bioscreen C; Growth Curves USA, Piscataway, NJ) which was programmed for continuous shaking at 37 °C, and optical density readings at 600 nm (OD600) were recorded every hour for 24 h. […] The optical density data were analyzed, and growth curve graphs for each isolate were generated using MS Excel. […] Twenty-four-hour growth curve assays for Salmonella isolate SX238 were repeated at different bacterial CFU (~ 1 × 10^5, 1 × 10^6, 1 × 10^7, and 1 × 10^8 CFU/mL) with NK2A (5 µM and 10 µM). Sc-NK2A was included as a control for the assay.

The subject of data set [3] is MDR Salmonella enterica serovar I 4,[5],12:i:- strain USDA15WA-1 (SX238). In words: Growth curve assay (automated reader, OD600) with isolate SX238. The class given is cell-based. The conditions noted are these: for growth inhibition activity on SX238 at highest tested concentration: up to 20 µM peptide, 24 h growth curve; for time at which bacteria recovered and grew after initial inhibition: SX238, LB broth. The procedure:
as §1

Data set [4] relates to MDR Salmonella outbreak isolate SX238 cytoplasmic membrane. In words: Propidium iodide (PI) uptake assay. Format: cell-based, Salmonella enterica serovar I 4,[5],12:i:-. As to the method: The kinetics of NK2A-induced damage to Salmonella cell membranes were evaluated using PI uptake assay as described previously. Briefly, an overnight culture of MDR Salmonella outbreak isolate SX238 was centrifuged, washed with PBS, and resuspended in PBS. Ninety microliters of bacterial suspension was transferred to a 96-well opaque plate (~ 1 × 10^7 CFU/well), mixed with 10 µL of PI (final concentration = 3 µM) and incubated at 37 °C for 5 min. PBS, polymyxin B (2, 4, 25, 50 and 100 µg/mL), NK2A or Sc-NK2A (both at 2 and 5 µM) were added and PI fluorescent intensities in each well was continuously measured (15 s intervals, flex mode) using a FlexStation 3 multi-mode (fluorescent) microplate reader (Molecular Devices LLC., San Jose, CA) for up to 6 h. The excitation and emission wavelengths for PI was set up at 530 nm and 620 nm, respectively.

The subject of data set [5] is Salmonella isolates (MDR and non-MDR). Briefly: Growth curve assay, statements over all Salmonella isolates. Particulars: 24 h incubation in LB broth, MDR and non-MDR isolates. The class given is cell-based. As to the method: as §1
Data set [6] deals with Salmonella SX238 outer- and inner-membranes. Briefly: Transmission electron microscopy of peptide-treated bacteria. Format: cell-based, Salmonella enterica serovar I 4,[5],12:i:-. The conditions noted are these: 20 µM peptide, 1 h at 37 °C, ~1 × 10^7 CFU/well in PBS. As to the method: Morphological changes of bacteria following incubation with NK2A and Sc-NK2A peptides were studied by TEM. An overnight culture of Salmonella (isolate SX238) was centrifuged and resuspended in PBS. One hundred microliters of bacterial suspension were placed in a Honeycomb plate (~ 1 × 10^7 CFU/well) and NK2A, Sc-NK2A (20 µM), and PBS were added and incubated at 37 °C with continuous shaking for 1 h. The bacterial suspensions were mixed with an equal volume of 3% glutaraldehyde in 0.1 M cacodylate buffer (pH 7.4) and processed for TEM as described before. Sections were examined with a FEI Tecnai G2 Biotwin (FEI Co., Hillboro, OR) TEM and images were taken with Advanced Microscopy Technologies (AMT Inc., Danvers, […]) imaging camera.

For data set [7], the system named is MDR Salmonella enterica serovar Heidelberg (SB395). Briefly: Growth curve assay (automated reader, OD600) with isolate SB395. The class given is cell-based. The conditions noted are these: 20 µM peptide, LB broth, 24 h growth curve.
In data set [8] the test system is Salmonella SX238. In words: LIVE/DEAD BacLight staining, confocal laser scanning microscopy. The class given is cell-based, Salmonella enterica serovar I 4,[5],12:i:-. Particulars: 5 µM peptide. The procedure:
The viabilities of bacteria following incubation with NK2A and Sc-NK2A were determined using culture-independent (function of the membrane integrity of the bacteria) staining technique by using LIVE/DEAD™ BacLight™ bacterial viability kit (for microscopy) as described previously. Bacteria in each treatment was visualized using a Nikon A1R + laser scanning confocal microscope (Nikon Instruments, Melville, NY) as described previously. Images were obtained using plan Apo 60 × objective lens (oil) at numerical aperture 1.4. Final figures were prepared using Adobe Photoshop Elements 11.

Data set [9] concerns MDR Salmonella enterica serovar Typhimurium DT193 strain 1434 (SX231). In words: Growth curve assay (automated reader, OD600) with isolate SX231. Format: cell-based. Particulars: 20 µM peptide, LB broth, 24 h growth curve.

“VIIHVTSKVCSKMGLWSILCNQMMKKYLNR [NK1, 30-mer peptide corresponding to functional region helices 2-loop-3 of bovine NK-lysin NK1]”: the “signs of toxicity or death” value in data set [1] is “did not show signs of toxicity or death”. The “growth inhibition activity on SB377 at highest tested concentration” value in data set [2] (LB broth) was “did not show any Salmonella SX238 and SB377 growth inhibition activity”. Also, the “growth inhibition activity on SX238 at highest tested concentration” value in [3] (LB broth) is “did not show any Salmonella SX238 and SB377 growth inhibition activity”.
For polymyxin B [reference compound], the PI uptake signal result in data set [4] (polymyxin B 2-100 µg/mL, 6 h observation) is “No PI uptake signal was observed”; in data set [4] (polymyxin B up to 100 µg/mL, 30 min observation), “No PI uptake signal was observed”.
Consider “TVIEEASKVCSKMRLLKGLCKSIMKKFLRT [NK2C, 30-mer peptide corresponding to functional region helices 2-loop-3 of bovine NK-lysin NK2C]”, for which the “signs of toxicity or death” value in data set [1] is on record as “did not show signs of toxicity or death”. In addition, the “time at which bacteria recovered and grew after initial inhibition” value is on record as “approximately 7 h” in data set [2] (10 µM peptide), ~20 h in [2] (20 µM peptide), “approximately 7 h” in data set [3] (10 µM peptide) and ~20 h in data set [3] (20 µM peptide).
For the molecule “TVIEAASKVCGKMGPLKGLCKSITKRFLRR [NK2B, 30-mer peptide corresponding to functional region helices 2-loop-3 of bovine NK-lysin NK2B]”, the “concentrations able to inhibit growth of Salmonella during 24 h” value in data set [5] fell in the range of 3.5 to 5 µM. The “signs of toxicity or death” value in [1] is on record as “did not show signs of toxicity or death”. For the same molecule, the “peptide concentration at which growth of SB377 was completely inhibited” value in [2] (LB broth, ~1 × 10^5 CFU/well, 37 °C, OD600 every hour for 24 h, tested 2-20 µM) was ≥ 5 µM. Besides, the “peptide concentration at which growth of SX238 was completely inhibited” value in data set [3] (LB broth, ~1 × 10^5 CFU/well, 37 °C, OD600 every hour for 24 h, tested 2-20 µM, at least three experiments) was ≥ 5 µM.
Turning to `CC[C@H](C)[C@H](NC(=O)[C@H](CCSC)NC(=O)[C@H](CS)NC(=O)[C@H](CCCNC(=N)N)NC(=O)[C@H](CCC(=O)O)NC(=O)[C@H](CCCCN)NC(=O)[C@H](CCCCN)NC(=O)[C@H](CS)NC(=O)[C@H](CCCCN)NC(=O)[C@H](CO)NC(=O)[C@H](CCCCN)NC(=O)CNC(=O)[C@@H](NC(=O)[C@H](CC(C)C)NC(=O)[C@H](CCCNC(=N)N)NC(=O)[C@@H](NC(=O)[C@@H](NC(=O)[C@H](C)NC(=O)[C@H](CC(C)C)NC(=O)[C@H](CO)NC(=O)[C@H](CC(C)C)NC(=O)[C@H](CO)NC(=O)[C@@H](NC(=O)[C@H](Cc1ccccc1)NC(=O)[C@@H](N)CCSC)C(C)C)[C@@H](C)O)[C@@H](C)CC)[C@@H](C)O)C(=O)N[C@@H](CC(C)C)C(=O)N[C@@H](CCCCN)C(=O)N[C@@H](CCCNC(=N)N)C(=O)N[C@@H](CCCNC(=N)N)C(=O)N[C@H](C(=O)O)C(C)C` [Sc-NK2A] (H-MFVSLSLATIRLTGKSKCKKERCMILKRRV-OH; N-terminus and C-terminus assumed), the “ultrastructural changes to bacterial membranes” value in [6] is given as “did not cause detectable damage to the bacterial membranes”. Also, the “signs of toxicity or death” value in data set [1] was “did not show signs of toxicity or death”. In addition, in [7], the “growth inhibition activity on SB395 at highest tested concentration” value is listed as “failed to show Salmonella growth inhibition activity”. In addition, the “live/dead staining result (SYTO 9 / PI)” value in data set [8] is “did not have detectable antimicrobial activity”. For the same molecule, the “growth inhibition activity on SX231 at highest tested concentration” value in data set [9] is given as “failed to show Salmonella growth inhibition activity”. In addition, the PI uptake signal entry in [4] (5 µM peptide, 30 min, ~1 × 10^7 CFU/well in PBS, 3 µM PI) is on record as “did not show PI uptake signals”. In data set [2] (LB broth), the “growth inhibition activity on SB377 at highest tested concentration” value is reported as “failed to show Salmonella growth inhibition activity”. Moreover, in [3] (10 µM peptide, 10^4 CFU/well), the “growth inhibition of SX238 at the lowest bacterial concentration” value was “failed to inhibit bacterial growth”. Besides, the “growth inhibition activity on SX238 at highest tested concentration” value in data set [3] (LB broth) is “failed to show Salmonella growth inhibition activity”.
